Here are results for one compound from patent US3951955A, “Penicillins substituted with heterocyclic groups” (Sumitomo Chemical Company, Limited, priority 1970, dated 1976).

≈ marks a conversion by molar mass, not a printed value.

In one assay the test system is Escherichia coli NIHJ. The assay can be described thus: minimal inhibitory concentration, agar dilution method (in vitro). It counts as cell-based. An excerpt: (§1) When determined according to the agar dilution method, the penicillins [I] afford the minimal inhibitory concentrations as shown in the following Table 1: […]
Assay [1] has as its system Klebsiella pneumoniae 602. The description is as above. It counts as cell-based.
Text: as §1

A further assay concerns Proteus miravilis 2425. Described as above. The class given is cell-based.
Text: as §1

Assay [2] deals with Pseudomonas aeruginosa 104. The assay is described as above. It counts as cell-based.
Text: as §1

In assay [3] the test system is Staphylococcus aureus 209P. Described as above. The class given is cell-based.
Text: as §1

The subject of assay [4] is various gram-positive and gram-negative bacteria. Conditions: background statement on prior art; cited from earlier work.
A further assay concerns Pseudomonas. As to conditions: background statement on prior art; cited from earlier work.

In general, MIC refers to the lowest concentration that inhibits growth of the organism. A high value points to a need for much substance. On to `CC1(C)S[C@@H]2C(NC(=O)C(N)c3ccccc3)C(=O)N2[C@H]1C(=O)O` (stereo partly drawn) [Ampicillin, 6-(α-aminophenylacetamido)-penicillanic acid, reference compound], for which the MIC in the assay on Escherichia coli NIHJ was 6.25 µg/mL (≈ 17.9 µM); in assay [1], 50 µg/mL (≈ 143 µM); against Proteus miravilis 2425, 3.13 µg/mL (≈ 8.96 µM); in assay [2] it was more than 200 µg/mL; in assay [3], 0.2 µg/mL (≈ 0.572 µM). In addition, in assay [4], the “growth inhibition / antimicrobial activity against gram-positive and gram-negative bacteria” value was “inhibits the growth of various gram-positive and gram-negativebacteria”. For the same compound, in the assay with Pseudomonas, the “antimicrobial activity against Pseudomonas” value was “does not exert any appreciable antimicrobial activity against Pseudomonas”.
